# Entries after “also recorded” stand apart in the source; their conditions may differ.
# Columns and labels:
# HCF cells [1] = assay: DNA demethylation with 5-aza-2′-deoxycytidine in hypoxic HCF cells, pro-fibrotic protein expression; type: cell-based, human; conditions: for expression of ASMA / expression of collagen 1 / expression of collagen 3: hypoxic fibroblasts with TGFβ; for expression of ASMA / expression of collagen 1 / expression of collagen 3 / pro-fibrotic effects of / responses to TGFβ: 1-5 μM; for pro-fibrotic effects of / responses to TGFβ: hypoxic fibroblasts, up to eight days
# Method: Where indicated, HCF cells were exposed to a 1% oxygen environment for up to 8 days using a hypoxic chamber (Coy Laboratories). The effects of 10 ng/ml recombinant TGFβ1 treatment (R&D Systems) under these conditions were investigated. When required, cells were treated for 24 hours with 1 mM of the prolyl hydroxylase inhibitor DMOG (Sigma) to simulate hypoxia through the induction of HIF under normoxic conditions. Whole cell protein lysates were generated using RIPA Lysis Buffer (Millipore), containing a protease inhibitor cocktail (Roche). Nuclear protein extracts were obtained using the Ne-PeR Nuclear and Cytoplasmic extraction Reagents, according to manufacturer's instructions (Pierce Biotechnology). Protein concentrations were determined using the BCA Protein Assay Kit (Pierce). 10-20 μg of protein lysates were denatured, reduced and resolved on SDS-polyacrylamide gels by SDS-PAGE before transfer onto 0.45 μm pore size Immobilon-P polyvinylidene fluoride (PVDF) membranes (Millipore). Membranes were incubated with blocking buffer (TBS, 0.25% Tween-20, 0.1% serum from species that secondary antibody was raised in, and 5% fat free skimmed milk) for 1 hour at room temperature. Membranes were subsequently probed overnight with either anti-ASMA (Sigma), anti-collagen 1, anti-DNMT3B (Imgenex), or anti-hypoxia inducible factor 1α (HIF-1α) (Novus Biologicals). Detection of the specific binding of the primary antibody was achieved using HRP-conjugated secondary antibodies, followed by signal detection with Immobilon Western chemiluminescent HRP substrate (Millipore) according to the manufacturer's instructions. Anti-alpha tubulin (Sigma) was used to verify equal loading. For demethylation analysis, cells were treated with 1-5 μM 5-aza-2′-deoxycytidine (5-azadc; Sigma) for up to eight days. The effect of global DNA methylation inhibition on pro-fibrotic protein expression was assessed using Western blotting.
# cardiac myoblast cells = assay: Cardiac myoblast gene expression of MYBP-C and ACTA1 in vitro by real-time PCR; type: cell-based; conditions: 4 day treatment
# Method: Confirmation of the impact of DNA methylation inhibitors can up-regulate the expression levels of MYBP-C and ACTA1 was assessed in vitro using cardiac myoblast cells. Cells were grown in culture for 4 days either in the presence or absence of 5-azacytidine (5AZA) or 5-aza-2-deoxycytidine (5AZA_DC). Gene expression was quantified using real-time PCR.
# [2] = test system: spontaneously hypertensive rats (SHR); assay: Picrosirius red staining with automated digital quantification of perivascular collagen; type: in vivo, rat; conditions: SHR-5AZA vs SHR-V, 12 weeks
# Method: Approval from the local Animal Research Ethics Committee was sought and obtained to investigate the anti-fibrotic impact of 5-aza on cardiac function and fibrosis. Male spontaneously hypertensive rats (SHR) and their normotensive counterpart Wistar Kyote rats (WKY) were purchased from Charles River and utilised for the study. From 10 weeks of age, the animals received alternate day intra-peritoneal injection of either PBS (vehicle) or 5-aza (10 mg/kg) for 12 weeks. The 5-aza was purchased from Sigma, diluted in sterile PBS and filtered through a 0.22 μm filter. Aliquots were stored at −20° C. and were used within 5 days of reconstitution. The study design consisted of three groups of 10 animals; group 1 included 10 SHR rats who received 5-aza (SH R-5-aza); group 2 included 10 SHR rats who received PBS vehicle (SHR-V); group 3 included 10 WKY rats who received PBS vehicle (WKY-V). All rats were housed in the animal facility under identical conditions, with a 12 hour light-dark cycle. […]
# The degree of collagen deposition was quantified by automated digital image analysis. […] A positive pixel count algorithm was used to automatically quantify the area occupied by the dark pink stain colours representing collagen within each scanned slide image. […] A collagen volume fraction was calculated based on the percent of dark pink collagen staining quantified within a tissue section.
# [3] = test system: spontaneously hypertensive rats (SHR); assay: Myocyte area digital analysis of haematoxylin and eosin stained cardiac tissue; type: in vivo, rat; conditions: SHR-5AZA vs SHR-V
# Method: FIG. 16 depicts the effect of 5AZA treatment on myocyte area in vivo. […] Male spontaneously hypertensive rats (SHR) and their normotensive counterpart Wistar Kyote rats (WKY) were purchased from Charles River and utilised for the study. From 10 weeks of age, the animals received alternate day intra-peritoneal injection of either PBS (vehicle) or 5-aza (10 mg/kg) for 12 weeks. The 5-aza was purchased from Sigma, diluted in sterile PBS and filtered through a 0.22 μm filter. Aliquots were stored at −20° C. and were used within 5 days of reconstitution. The study design consisted of three groups of 10 animals; group 1 included 10 SHR rats who received 5-aza (SH R-5-aza); group 2 included 10 SHR rats who received PBS vehicle (SHR-V); group 3 included 10 WKY rats who received PBS vehicle (WKY-V). All rats were housed in the animal facility under identical conditions, with a 12 hour light-dark cycle.
# [4] = test system: spontaneously hypertensive rats (SHR); assay: Doppler echocardiography in rat model of hypertensive heart disease; type: in vivo; conditions: SHR-5AZA vs SHR-V, 10 mg/kg i.p. alternate day, 12 weeks
# Method: Approval from the local Animal Research Ethics Committee was sought and obtained to investigate the anti-fibrotic impact of 5-aza on cardiac function and fibrosis. Male spontaneously hypertensive rats (SHR) and their normotensive counterpart Wistar Kyote rats (WKY) were purchased from Charles River and utilised for the study. From 10 weeks of age, the animals received alternate day intra-peritoneal injection of either PBS (vehicle) or 5-aza (10 mg/kg) for 12 weeks. The 5-aza was purchased from Sigma, diluted in sterile PBS and filtered through a 0.22 μm filter. Aliquots were stored at −20° C. and were used within 5 days of reconstitution. The study design consisted of three groups of 10 animals; group 1 included 10 SHR rats who received 5-aza (SH R-5-aza); group 2 included 10 SHR rats who received PBS vehicle (SHR-V); group 3 included 10 WKY rats who received PBS vehicle (WKY-V). All rats were housed in the animal facility under identical conditions, with a 12 hour light-dark cycle. Cardiac structure and function was assessed at baseline and at the end of the study (12 weeks) using Echocardiography. During the procedure, the animals were under inhaled anaesthesia (isoflurane 2%) and body temperature was maintained using a heat mat. Echocardiography assessment was performed using a Vevo 770 High-Resolution In Vivo Micro-Imaging System (Visualsonics) with a […] transducer. M-mode and 2-dimensional (2D) images were obtained in the parasternal long- and short-axis views. The interventricular septal thickness, posterior wall thickness, and LV diameter were measured in systole and diastole at the tips of the papillary muscle. Measurements were taken over three consecutive cardiac cycles and averaged. Left ventricular mass (LVM) was calculated according to Devereux's formula and indexed to tibial length (LVMi). Blinded analysis was performed by two separate independent observers.
# [5] = test system: spontaneously hypertensive rats (SHR); assay: Hydroxyproline assay of total collagen in myocardium; type: in vivo, rat; conditions: SHR-5AZA vs SHR-V, 12 weeks
# Method: (§1) Approval from the local Animal Research Ethics Committee was sought and obtained to investigate the anti-fibrotic impact of 5-aza on cardiac function and fibrosis. Male spontaneously hypertensive rats (SHR) and their normotensive counterpart Wistar Kyote rats (WKY) were purchased from Charles River and utilised for the study. From 10 weeks of age, the animals received alternate day intra-peritoneal injection of either PBS (vehicle) or 5-aza (10 mg/kg) for 12 weeks. The 5-aza was purchased from Sigma, diluted in sterile PBS and filtered through a 0.22 μm filter. Aliquots were stored at −20° C. and were used within 5 days of reconstitution. The study design consisted of three groups of 10 animals; group 1 included 10 SHR rats who received 5-aza (SH R-5-aza); group 2 included 10 SHR rats who received PBS vehicle (SHR-V); group 3 included 10 WKY rats who received PBS vehicle (WKY-V). All rats were housed in the animal facility under identical conditions, with a 12 hour light-dark cycle.
# [6] = test system: spontaneously hypertensive rats (SHR); assay: Cardiac tissue gene expression of MYBP-C and ACTA1 by quantitative real-time PCR; type: in vivo, rat
# Method: FIGS. 17 and 18 depict the effect of 5AZA treatment on cardiac expression levels of MYBP-C and ACTA1. Gene expression levels of MYBP-C and ACTA1 were assessed using quantitative real-time PCR in the cardiac tissue of SHR-V and SHR-AZA. […] Results represent mean and standard error of the mean. * p<0.05, *** p<0.001.
# as §1
# HCF cells [7] = assay: DMOG treatment of HCF cells in normoxia (Western blot); type: cell-based, human; conditions: 1 mM DMOG, 24 hours
# Method: Primary human cardiac fibroblast cells from the adult ventricle (HCF) were purchased from ScienCell Research Laboratories. Primary cells were derived from a single person. Until required for experiments, cells were cultured and maintained in Dulbecco's modified eagles medium (DMEM) (Gibco), supplemented with 10% Fetal Bovine Serum (Gibco) and penicillin-streptomycin antibiotics (Gibco) in a 5% CO2 humidified incubator kept at 37° C.
# (§2) Where indicated, HCF cells were exposed to a 1% oxygen environment for up to 8 days using a hypoxic chamber (Coy Laboratories). The effects of 10 ng/ml recombinant TGFβ1 treatment (R&D Systems) under these conditions were investigated. When required, cells were treated for 24 hours with 1 mM of the prolyl hydroxylase inhibitor DMOG (Sigma) to simulate hypoxia through the induction of HIF under normoxic conditions.
# Whole cell protein lysates were generated using RIPA Lysis Buffer (Millipore), containing a protease inhibitor cocktail (Roche). Nuclear protein extracts were obtained using the Ne-PeR Nuclear and Cytoplasmic extraction Reagents, according to manufacturer's instructions (Pierce Biotechnology). Protein concentrations were determined using the BCA Protein Assay Kit (Pierce). […]
# HCF cells [8] = assay: TGFβ1 treatment of HCF cells, quantitative real-time PCR; type: cell-based, human
# Method: as §2
# Gene expression changes were measured in HCF cells using QPCR as described in human cardiac tissue analysis methods section. RNA isolation from cells was achieved using NucleoSpin RNA II Kit (Macherey-Nagel). QPCR data was analysed using the delta delta CT method.
# [9] = 10 ng/ml TGFβ1, 8 days hypoxia (1% oxygen)
compound,measurement,setting,value
"Nc1ncn([C@@H]2O[C@H](CO)[C@@H](O)[C@H]2O)c(=O)n1 [5AZA, 5-azacytidine]",pro-fibrotic impact of hypoxia,HCF cells [1]; FIGS. 7A-7C,reverses
same,ACTA1 gene expression in cardiac myoblast cells,cardiac myoblast cells,significant increase
same,MYBP-C gene expression in cardiac myoblast cells,cardiac myoblast cells,significant increase
same,perivascular collagen,[2],significantly reduced; also recorded: significant decrease
same,myocyte area,[3],significantly smaller; also recorded: significant decrease
same,cardiac hypertrophy,[4],significant reduction
same,"E prime (E′), diastolic dysfunction",[4]; 10 mg/kg,significantly approved; also recorded: significantly improved
same,Ejection fraction (EF),[4]; 10 mg/kg,significantly increased; also recorded: significantly improved
same,interventricular septum diameter (in diastole),[4]; 10 mg/kg,significant reduction; also recorded: reduced
same,left ventricular mass index (LVMi),[4]; 10 mg/kg,significant reduction; also recorded: reduced
same,total collagen / collagen deposition within the myocardium (hydroxyproline),[5],significant reduction
same,ACTA1 expression in cardiac tissue,[6]; SHR animals treated with 5AZA,significant increase
same,MYBP-C expression within the myocardium,[6]; SHR animals treated with 5AZA,significant increase
same,increase in ACTA1 gene expression in cardiac tissue,[6]; SHR-AZA vs SHR-V,4 fold
same,increase in MYBP-C gene expression in cardiac tissue,[6]; SHR-AZA vs SHR-V,4 fold
"Nc1ncn([C@H]2C[C@H](O)[C@@H](CO)O2)c(=O)n1 [5AZA_DC, 5-aza-2′-deoxycytidine]",expression of ASMA,HCF cells [1],reduced expression
same,expression of collagen 1,HCF cells [1],reduced expression
same,expression of collagen 3,HCF cells [1],reduced expression
same,expression of ASMA,HCF cells [1]; listed as 5-aza2dC,significantly reduced
same,expression of collagen 1,HCF cells [1]; listed as 5-aza2dC,significantly reduced
same,expression of collagen 3,HCF cells [1]; listed as 5-aza2dC,significantly reduced
same,pro-fibrotic effects of / responses to TGFβ,HCF cells [1],significantly reduced
same,pro-fibrotic effects of / responses to TGFβ,HCF cells [1]; listed as 5-aza2dC,inhibited
same,ACTA1 gene expression in cardiac myoblast cells,cardiac myoblast cells,significant increase
same,MYBP-C gene expression in cardiac myoblast cells,cardiac myoblast cells,significant increase
COC(=O)CNC(=O)C(=O)OC [DMOG],expression of DNMT3B,HCF cells [7],increased expression
same,nuclear HIF-1α protein expression,HCF cells [7],stabilises
"TGFβ1: human recombinant transforming growth factor beta 1, pro-fibrotic cytokine",ASMA gene expression,HCF cells [8]; 10 ng/ml TGFβ1,significantly increased
same,collagen 1 gene expression,HCF cells [8]; 10 ng/ml TGFβ1,significantly increased
same,ASMA gene expression,HCF cells [8]; [9],further enhanced
same,collagen 1 gene expression,HCF cells [8]; [9],further enhanced
